Earlier results on three compounds are cited in patent US20220333071A1, “METHODS OF MAKING, EXPANDING AND PURIFYING MIDBRAIN DOPAMINERGIC PROGENITOR CELLS” (BrainXell, Inc., priority 2021, published 2022).

A word on the IC50: it is the midpoint of a concentration-inhibition curve.

One data set addresses ALK-1 (Homo sapiens, UniProt P37023). The conditions noted are these: in vitro kinase assays.
A further data set concerns the target ALK-3 (Homo sapiens, UniProt P36894). As to conditions: in vitro kinase assays.
For a further data set, the target named is T1, ALK5 (Homo sapiens, UniProt P36897).
T1 sequence (P36897 34-503): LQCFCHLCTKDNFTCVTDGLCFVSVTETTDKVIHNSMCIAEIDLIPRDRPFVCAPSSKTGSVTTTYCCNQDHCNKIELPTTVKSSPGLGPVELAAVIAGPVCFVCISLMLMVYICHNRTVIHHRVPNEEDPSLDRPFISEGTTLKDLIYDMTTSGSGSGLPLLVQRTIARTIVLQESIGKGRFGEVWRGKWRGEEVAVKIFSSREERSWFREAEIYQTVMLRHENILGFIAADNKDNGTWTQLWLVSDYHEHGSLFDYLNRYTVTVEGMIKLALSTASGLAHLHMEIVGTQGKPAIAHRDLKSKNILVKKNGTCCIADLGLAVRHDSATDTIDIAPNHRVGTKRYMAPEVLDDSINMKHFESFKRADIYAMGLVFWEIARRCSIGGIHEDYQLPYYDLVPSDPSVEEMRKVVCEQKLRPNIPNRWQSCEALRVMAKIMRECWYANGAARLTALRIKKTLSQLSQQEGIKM

In a further data set the target is KDR (VEGFR-2) (Homo sapiens, UniProt P35968).
A further data set deals with PDGFRβ (Homo sapiens, UniProt P09619).
Data set [1] deals with BMP4-induced phosphorylation of Smads 1, 5 and 8. The conditions noted are these: HEK293 cells.
The subject of data set [2] is Wnt-mediated transcription. As to conditions: read-out: IC50, inhibition of Wnt-mediated transcription.

Each structure is given as a SMILES string.

Chain of ALK-3 (P36894 24-532, species assumed): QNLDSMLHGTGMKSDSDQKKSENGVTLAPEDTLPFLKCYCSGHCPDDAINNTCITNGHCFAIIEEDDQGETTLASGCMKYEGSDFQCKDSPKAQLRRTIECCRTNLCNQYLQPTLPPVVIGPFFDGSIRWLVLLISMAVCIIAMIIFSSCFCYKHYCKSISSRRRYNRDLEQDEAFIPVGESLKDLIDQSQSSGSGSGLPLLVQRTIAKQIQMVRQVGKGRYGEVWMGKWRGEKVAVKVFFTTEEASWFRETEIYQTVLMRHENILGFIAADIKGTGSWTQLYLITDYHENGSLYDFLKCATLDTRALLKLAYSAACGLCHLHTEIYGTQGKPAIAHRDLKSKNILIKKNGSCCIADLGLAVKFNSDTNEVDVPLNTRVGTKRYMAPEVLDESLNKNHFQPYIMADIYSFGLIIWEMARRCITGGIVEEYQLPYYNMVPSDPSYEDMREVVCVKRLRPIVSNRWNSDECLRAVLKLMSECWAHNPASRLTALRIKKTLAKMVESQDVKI
Chain of ALK-1 (P37023 22-503, species assumed): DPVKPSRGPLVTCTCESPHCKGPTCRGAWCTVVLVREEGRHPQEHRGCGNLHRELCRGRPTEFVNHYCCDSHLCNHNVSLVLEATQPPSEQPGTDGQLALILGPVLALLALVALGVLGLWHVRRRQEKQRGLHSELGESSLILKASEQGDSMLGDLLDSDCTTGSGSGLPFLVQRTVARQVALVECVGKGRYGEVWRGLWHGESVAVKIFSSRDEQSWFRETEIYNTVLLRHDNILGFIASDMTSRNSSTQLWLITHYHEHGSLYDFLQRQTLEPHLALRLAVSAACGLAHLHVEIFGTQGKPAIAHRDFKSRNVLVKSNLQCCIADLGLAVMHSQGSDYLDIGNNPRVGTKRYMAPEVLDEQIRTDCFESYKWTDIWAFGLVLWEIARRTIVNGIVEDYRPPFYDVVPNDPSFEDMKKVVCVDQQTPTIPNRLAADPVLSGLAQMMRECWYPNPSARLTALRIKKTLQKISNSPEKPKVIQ
Chain of KDR (VEGFR-2) (P35968 20-1356, species assumed): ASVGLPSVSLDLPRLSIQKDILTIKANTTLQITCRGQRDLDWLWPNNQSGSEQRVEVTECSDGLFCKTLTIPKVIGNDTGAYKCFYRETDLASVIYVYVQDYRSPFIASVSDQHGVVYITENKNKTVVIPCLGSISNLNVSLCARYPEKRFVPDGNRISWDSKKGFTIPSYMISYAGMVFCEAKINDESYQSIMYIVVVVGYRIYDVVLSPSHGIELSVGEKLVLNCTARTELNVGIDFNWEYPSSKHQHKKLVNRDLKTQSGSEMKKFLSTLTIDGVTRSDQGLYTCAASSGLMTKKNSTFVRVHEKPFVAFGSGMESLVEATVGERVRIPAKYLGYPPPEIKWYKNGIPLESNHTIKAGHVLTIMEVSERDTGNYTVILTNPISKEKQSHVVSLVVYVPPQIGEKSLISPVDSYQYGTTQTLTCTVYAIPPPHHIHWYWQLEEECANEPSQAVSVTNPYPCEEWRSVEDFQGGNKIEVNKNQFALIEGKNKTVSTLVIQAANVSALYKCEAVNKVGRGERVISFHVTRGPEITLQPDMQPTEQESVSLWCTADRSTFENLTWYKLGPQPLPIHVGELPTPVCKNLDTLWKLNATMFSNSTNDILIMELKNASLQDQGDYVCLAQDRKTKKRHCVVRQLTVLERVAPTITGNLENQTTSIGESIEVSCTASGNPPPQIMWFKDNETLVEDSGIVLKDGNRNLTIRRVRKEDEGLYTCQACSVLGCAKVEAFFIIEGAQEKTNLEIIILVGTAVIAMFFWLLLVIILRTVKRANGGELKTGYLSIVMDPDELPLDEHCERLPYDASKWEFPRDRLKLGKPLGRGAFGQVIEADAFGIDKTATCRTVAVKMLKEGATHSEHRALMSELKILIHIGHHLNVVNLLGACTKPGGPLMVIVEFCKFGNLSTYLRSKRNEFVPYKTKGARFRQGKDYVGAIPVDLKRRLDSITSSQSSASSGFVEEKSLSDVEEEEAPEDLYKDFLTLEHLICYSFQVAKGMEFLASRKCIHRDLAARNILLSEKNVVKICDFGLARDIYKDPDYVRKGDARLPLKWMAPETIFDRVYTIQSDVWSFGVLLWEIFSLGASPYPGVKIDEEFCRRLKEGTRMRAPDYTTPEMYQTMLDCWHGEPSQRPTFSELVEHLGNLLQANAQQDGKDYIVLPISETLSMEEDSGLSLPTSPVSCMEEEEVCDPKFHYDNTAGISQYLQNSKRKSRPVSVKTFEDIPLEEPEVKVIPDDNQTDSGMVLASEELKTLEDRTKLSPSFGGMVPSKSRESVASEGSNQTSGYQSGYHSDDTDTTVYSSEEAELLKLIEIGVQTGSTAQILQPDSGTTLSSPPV
Chain of PDGFRβ (P09619 33-1106, species assumed): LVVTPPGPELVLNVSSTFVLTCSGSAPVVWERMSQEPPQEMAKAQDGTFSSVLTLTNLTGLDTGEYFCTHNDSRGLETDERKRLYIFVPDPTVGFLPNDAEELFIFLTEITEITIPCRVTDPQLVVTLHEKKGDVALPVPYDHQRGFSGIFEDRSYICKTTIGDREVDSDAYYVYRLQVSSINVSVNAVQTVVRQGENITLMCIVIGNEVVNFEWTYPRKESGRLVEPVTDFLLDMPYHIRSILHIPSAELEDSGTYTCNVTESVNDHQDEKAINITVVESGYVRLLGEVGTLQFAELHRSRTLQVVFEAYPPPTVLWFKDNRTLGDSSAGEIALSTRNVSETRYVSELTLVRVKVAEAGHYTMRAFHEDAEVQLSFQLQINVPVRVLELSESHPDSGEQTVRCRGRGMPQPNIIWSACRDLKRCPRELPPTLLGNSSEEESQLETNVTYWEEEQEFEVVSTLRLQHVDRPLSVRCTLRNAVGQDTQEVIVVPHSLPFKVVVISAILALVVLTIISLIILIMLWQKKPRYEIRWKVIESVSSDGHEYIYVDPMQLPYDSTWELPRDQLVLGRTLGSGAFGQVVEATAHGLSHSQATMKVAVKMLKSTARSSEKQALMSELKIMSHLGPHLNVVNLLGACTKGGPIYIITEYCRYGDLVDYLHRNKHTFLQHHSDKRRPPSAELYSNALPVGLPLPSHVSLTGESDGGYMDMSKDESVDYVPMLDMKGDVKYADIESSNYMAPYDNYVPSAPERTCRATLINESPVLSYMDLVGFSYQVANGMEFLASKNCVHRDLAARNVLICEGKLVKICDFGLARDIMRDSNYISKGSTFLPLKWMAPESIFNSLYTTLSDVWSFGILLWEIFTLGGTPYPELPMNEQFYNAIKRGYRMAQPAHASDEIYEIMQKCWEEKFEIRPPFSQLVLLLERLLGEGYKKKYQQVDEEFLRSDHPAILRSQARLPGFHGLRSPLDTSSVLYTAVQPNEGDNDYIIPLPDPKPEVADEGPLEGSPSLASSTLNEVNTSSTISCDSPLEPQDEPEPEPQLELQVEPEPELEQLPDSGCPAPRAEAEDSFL

`Cc1c[nH]c(-c2cnc(NCCNc3ccc(C#N)cn3)nc2-c2ccc(Cl)cc2Cl)n1` [CHIR99021, 6-(2-(4-(2,4-dichlorophenyl)-5-(4-methyl-1H-imidazol-2-yl)pyrimidin-2-ylamino)ethylamino) nicotinonitrile]: the “IC50 values against rodent GSK3-β homologs” value in the data set on rodent GSK3-β homologs is “nanomolar”.
Consider `CC(C)Oc1ccc(-c2cnc3c(-c4ccnc5ccccc45)cnn3c2)cc1` [DMH-1, 4-[6-[4-(1-Methylethoxy)phenyl]pyrazolo[1,5-a]pyrimidin-3-yl]-quinoline], for which the “selectivity for ALK-2 over ALK-1” value at ALK-1 is 6 fold. In addition, the “selectivity for ALK-2 over ALK-3” value on ALK-3 is 19 fold. For the same compound, the “inhibition of AMPK” value in the data set with AMPK is “no significant inhibition”. Moreover, at ALK5, the “inhibition of ALK5” value is recorded as “no significant inhibition”. Moreover, the “inhibition of KDR (VEGFR-2)” value at KDR (VEGFR-2) is on record as “no significant inhibition”. The “inhibition of PDGFRβ” value at PDGFRβ is on record as “no significant inhibition”. Besides, the “BMP4-induced phosphorylation of Smads 1, 5 and 8” value in data set [1] is on record as “Blocks”.
As to `Cc1cc(-c2ccc(CC(=O)Nc3ccc(-c4cccnc4)cc3)cc2)ccn1` [Wnt-059, 4-(2-Methyl-4-pyridinyl)-N-[4-(3-pyridinyl)phenyl]benzeneacetamide], in data set [2], the IC50 was 0.074 nM.
